Reference: patent US20050074879A1, “Antisense oligonucleotide modulation of STAT3 expression” (priority 2000, published 2005)
Oligonucleotides are written 5' to 3', each unit as a sugar letter and its base; * is a phosphorothioate linkage, no mark a phosphodiester; rarer units and linkages stand in square brackets, end groups in braces. Plain capitals give the bases only. e = 2'-O-(2-methoxyethyl) (MOE); [5mC] = 5-methylcytosine; d = 2'-deoxy (DNA)

System: Human STAT3 mRNA
Experiment: Inhibition of human STAT3 mRNA levels in A549 cells, 75 nM, real-time PCR (Table 13)
Type: cell-based
Settings: 75 nM oligonucleotide with LIPOFECTIN, real-time PCR PPS 199, percent inhibition relative to untreated control cells, average of 2 experiments
Outline: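 A549 cells at 65–75% confluency were transfected in duplicate with 75 nM oligonucleotide plus […] Lipofectin for 4–7 h at 37° C and harvested 16–24 h later. STAT3 mRNA was quantified by real-time RT-PCR with primer-probe set PPS 199 and normalized to RiboGreen total RNA. Inhibition is relative to untreated controls.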

Row | Substance | % Inhib (inhibition of human STAT 3 mRNA levels) [%]
1 | 337332 (antisense eG*eA*eA*eG*e[5mC]*d[5mC]*d[5mC]*dT*dT*dG*d[5mC]*d[5mC]*dA*dG*d[5mC]*e[5mC]*eA*eT*eG*eT) [compound 337332] | 91
2 | 337333 (antisense eA*eA*eG*eG*eA*dG*dA*dA*dG*d[5mC]*d[5mC]*d[5mC]*dT*dT*dG*e[5mC]*e[5mC]*eA*eG*e[5mC]) [compound 337333] | 90
3 | 337348 (antisense eT*e[5mC]*e[5mC]*eG*eA*dA*dT*dG*d[5mC]*d[5mC]*dT*d[5mC]*d[5mC]*dT*d[5mC]*e[5mC]*eT*eT*eG*eG) [compound 337348] | 92
